Common to all, as to experiment: KinaseProfiler kinase assay
Holding throughout (type): biochemical

For one assay, the target named is T1, Flt3(h) (Homo sapiens, UniProt P36888).
T1 sequence (P36888 27-993): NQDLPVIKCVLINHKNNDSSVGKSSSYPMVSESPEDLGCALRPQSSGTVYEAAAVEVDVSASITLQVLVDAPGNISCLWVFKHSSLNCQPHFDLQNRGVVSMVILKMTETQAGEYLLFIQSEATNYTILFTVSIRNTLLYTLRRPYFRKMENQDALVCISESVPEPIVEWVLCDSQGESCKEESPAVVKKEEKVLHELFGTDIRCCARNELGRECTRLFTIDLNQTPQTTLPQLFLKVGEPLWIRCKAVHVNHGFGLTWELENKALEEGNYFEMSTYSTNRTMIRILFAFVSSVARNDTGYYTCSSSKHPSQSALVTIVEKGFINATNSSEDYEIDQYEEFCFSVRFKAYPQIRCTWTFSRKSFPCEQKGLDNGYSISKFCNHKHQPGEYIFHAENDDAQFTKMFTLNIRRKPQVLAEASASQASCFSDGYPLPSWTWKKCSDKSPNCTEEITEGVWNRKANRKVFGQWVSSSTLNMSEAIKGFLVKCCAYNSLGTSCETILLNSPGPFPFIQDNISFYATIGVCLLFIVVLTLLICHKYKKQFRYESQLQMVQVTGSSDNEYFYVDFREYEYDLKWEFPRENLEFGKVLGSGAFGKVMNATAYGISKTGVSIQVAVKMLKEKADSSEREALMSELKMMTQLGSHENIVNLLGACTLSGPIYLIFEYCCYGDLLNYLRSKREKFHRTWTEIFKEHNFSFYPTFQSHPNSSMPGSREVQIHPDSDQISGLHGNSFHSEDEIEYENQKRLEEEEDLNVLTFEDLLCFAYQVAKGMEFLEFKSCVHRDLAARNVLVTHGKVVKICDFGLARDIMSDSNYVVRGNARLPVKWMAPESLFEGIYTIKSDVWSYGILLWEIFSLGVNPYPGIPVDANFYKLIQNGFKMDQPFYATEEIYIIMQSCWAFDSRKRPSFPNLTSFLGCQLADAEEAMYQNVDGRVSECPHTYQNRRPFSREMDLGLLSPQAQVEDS
As for the experimental part:
(§1) This example tests the inhibitory properties of representative compounds of the invention in c-Src kinase, Aurora-A kinase, Flt3 kinase, Ret kinase and TrkA Kinase assays (see, Daniele Fancelli et al, J. Med. Chem., 2006, 49 (24), pp 7247-7251). The KinaseProfiler™ Service Assay Protocols (Millipore) was used to test the kinase inhibiting activity of novel compounds from this invention. To do this, the buffer composition was as: 20 mM MOPS, 1 mM EDTA, 0.01% Brij-35, 5% Glycerol, 0.1% β-mercaptoethanol, 1 mg/mL BSA. Test compounds were initially dissolved in DMSO at the desired concentration, then serially diluted to the kinase assay buffer. In a final reaction volume of 25 μL, Aurora-A(h) (5-10 mU) is incubated with 8 mM MOPS pH 7.0, 0.2 mM EDTA, 200 μM LRRASLG (Kemptide), 10 mM MgAcetate and [γ^33P-ATP]. The reaction was initiated by the addition of the MgATP mix. After incubation for 40 minute at room temperature, the reaction was stopped by addition of 5 μL of a 3% phosphoric acid solution. 10 μL of the reaction was then spotted onto a P30 filtermat and washed three times for 5 minutes in 50 mM phosphoric acid and once in methanol prior to drying and scintillation counting. Wells containing substrate but no kinase and wells containing a phosphopeptide control were used to set 0% and 100% phosphorylation value, respectively.
(§2) The Kinase Hotspot℠ kinase assay was also used to test the compounds for IC50 or % inhibitions (Reaction Biology Corp.). Inhibitory IC50 values were determined by titration of compound at the optimal kinase concentration (Kinase EC50).

In the next assay the target is cSRC(h) (Homo sapiens, UniProt P12931). The method, then: as §1, §2
For a further assay, the target named is T2, Aurora-A(h) (Homo sapiens, UniProt O14965).
T2 sequence (O14965 1-403): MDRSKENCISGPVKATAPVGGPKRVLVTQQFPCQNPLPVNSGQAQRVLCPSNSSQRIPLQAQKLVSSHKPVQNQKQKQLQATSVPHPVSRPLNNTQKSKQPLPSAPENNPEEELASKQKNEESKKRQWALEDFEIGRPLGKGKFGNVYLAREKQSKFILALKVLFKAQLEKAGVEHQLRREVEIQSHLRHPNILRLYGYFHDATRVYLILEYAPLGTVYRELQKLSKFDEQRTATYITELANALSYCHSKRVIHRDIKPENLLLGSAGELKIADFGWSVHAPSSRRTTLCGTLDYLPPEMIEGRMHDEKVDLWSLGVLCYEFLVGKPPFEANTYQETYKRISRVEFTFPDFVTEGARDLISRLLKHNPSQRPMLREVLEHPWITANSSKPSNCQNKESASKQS
The note with it: read-out: % Inhibition @1 μM Auroro-A. As for the experimental part:
as §1, §2

In another assay the target is Ret(h) (Homo sapiens, UniProt P07949). The method, then: as §1, §2
The target in a further assay is KDR(h) (Homo sapiens, UniProt P35968).
For a further assay, the target named is Abl(h) (Homo sapiens, UniProt P00519).

This note sets out measurements from patent US10245261B2, “Substituted indol-5-ol derivatives and their therapeutic applications” (NantBioScience, Inc., priority 2013, dated 2019).

The inhibition is the drop in the measured response relative to a control, in per cent.

cSRC(h), sequence (P12931 whole entry): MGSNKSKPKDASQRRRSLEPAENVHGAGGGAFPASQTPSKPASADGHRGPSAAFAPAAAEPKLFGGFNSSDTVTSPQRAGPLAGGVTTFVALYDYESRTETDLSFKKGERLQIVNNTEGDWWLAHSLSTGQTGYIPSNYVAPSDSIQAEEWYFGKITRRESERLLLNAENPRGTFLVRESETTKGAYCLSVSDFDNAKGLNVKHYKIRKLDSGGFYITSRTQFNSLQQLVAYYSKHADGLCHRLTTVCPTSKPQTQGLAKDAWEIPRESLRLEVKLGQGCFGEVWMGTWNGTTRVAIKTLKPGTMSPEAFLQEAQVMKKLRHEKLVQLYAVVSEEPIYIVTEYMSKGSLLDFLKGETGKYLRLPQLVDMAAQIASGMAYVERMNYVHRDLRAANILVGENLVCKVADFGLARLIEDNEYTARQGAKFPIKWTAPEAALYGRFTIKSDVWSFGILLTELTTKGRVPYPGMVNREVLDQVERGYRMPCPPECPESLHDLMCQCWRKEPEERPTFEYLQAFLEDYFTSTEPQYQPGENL
Ret(h), sequence (P07949 29-1114): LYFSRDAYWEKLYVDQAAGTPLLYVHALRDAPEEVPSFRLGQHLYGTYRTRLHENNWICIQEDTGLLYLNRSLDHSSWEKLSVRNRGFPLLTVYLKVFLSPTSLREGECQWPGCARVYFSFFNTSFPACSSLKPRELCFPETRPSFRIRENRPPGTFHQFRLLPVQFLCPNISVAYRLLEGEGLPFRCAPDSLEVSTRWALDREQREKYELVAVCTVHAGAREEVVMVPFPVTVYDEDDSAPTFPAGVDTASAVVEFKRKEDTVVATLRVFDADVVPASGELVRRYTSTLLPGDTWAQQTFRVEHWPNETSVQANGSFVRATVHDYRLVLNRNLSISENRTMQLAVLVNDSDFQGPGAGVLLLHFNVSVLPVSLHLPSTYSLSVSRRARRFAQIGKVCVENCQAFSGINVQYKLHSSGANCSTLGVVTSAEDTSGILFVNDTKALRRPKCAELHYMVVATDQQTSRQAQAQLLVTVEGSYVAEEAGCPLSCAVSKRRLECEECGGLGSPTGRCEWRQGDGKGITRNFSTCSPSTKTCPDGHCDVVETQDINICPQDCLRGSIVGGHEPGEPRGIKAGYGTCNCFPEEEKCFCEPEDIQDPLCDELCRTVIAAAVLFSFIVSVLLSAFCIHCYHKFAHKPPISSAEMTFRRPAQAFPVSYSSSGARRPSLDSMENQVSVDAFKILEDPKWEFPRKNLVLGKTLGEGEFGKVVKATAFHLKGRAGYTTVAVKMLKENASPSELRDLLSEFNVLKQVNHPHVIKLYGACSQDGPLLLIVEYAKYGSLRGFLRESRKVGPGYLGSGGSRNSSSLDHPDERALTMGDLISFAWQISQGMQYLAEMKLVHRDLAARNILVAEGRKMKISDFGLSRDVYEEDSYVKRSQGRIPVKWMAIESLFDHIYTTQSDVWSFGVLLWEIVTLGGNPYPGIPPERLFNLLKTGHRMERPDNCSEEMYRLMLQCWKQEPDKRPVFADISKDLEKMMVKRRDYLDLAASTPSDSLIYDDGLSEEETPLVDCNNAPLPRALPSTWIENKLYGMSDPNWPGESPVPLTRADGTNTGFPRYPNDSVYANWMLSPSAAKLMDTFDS
Abl(h), sequence (P00519 whole entry): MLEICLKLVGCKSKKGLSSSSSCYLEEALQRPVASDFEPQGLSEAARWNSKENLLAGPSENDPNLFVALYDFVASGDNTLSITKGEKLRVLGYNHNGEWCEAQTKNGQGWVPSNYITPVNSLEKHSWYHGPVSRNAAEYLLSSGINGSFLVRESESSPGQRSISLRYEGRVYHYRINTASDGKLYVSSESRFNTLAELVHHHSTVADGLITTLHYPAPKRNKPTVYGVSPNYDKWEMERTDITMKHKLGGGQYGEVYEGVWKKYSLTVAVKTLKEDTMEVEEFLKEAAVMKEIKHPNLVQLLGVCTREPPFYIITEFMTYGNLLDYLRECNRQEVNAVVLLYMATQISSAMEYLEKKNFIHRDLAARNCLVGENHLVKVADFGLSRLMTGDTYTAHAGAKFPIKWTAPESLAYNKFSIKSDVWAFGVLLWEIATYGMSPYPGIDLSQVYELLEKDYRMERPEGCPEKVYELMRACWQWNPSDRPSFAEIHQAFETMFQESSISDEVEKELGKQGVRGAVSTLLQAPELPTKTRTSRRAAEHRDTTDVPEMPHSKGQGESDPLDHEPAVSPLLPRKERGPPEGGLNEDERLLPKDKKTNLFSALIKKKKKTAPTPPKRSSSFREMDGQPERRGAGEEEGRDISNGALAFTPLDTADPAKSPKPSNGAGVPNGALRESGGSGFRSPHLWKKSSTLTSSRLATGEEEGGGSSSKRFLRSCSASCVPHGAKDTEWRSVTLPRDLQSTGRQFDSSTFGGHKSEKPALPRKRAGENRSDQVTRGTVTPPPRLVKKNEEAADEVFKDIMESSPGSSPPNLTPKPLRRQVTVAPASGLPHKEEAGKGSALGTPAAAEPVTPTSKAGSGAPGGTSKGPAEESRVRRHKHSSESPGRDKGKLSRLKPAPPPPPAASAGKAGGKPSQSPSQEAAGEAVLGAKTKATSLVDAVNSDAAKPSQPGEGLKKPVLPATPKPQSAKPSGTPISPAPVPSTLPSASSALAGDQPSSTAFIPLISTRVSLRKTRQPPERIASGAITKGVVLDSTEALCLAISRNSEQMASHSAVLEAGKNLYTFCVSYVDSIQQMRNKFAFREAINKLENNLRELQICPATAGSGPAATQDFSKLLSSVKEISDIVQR
KDR(h), sequence (P35968 20-1356): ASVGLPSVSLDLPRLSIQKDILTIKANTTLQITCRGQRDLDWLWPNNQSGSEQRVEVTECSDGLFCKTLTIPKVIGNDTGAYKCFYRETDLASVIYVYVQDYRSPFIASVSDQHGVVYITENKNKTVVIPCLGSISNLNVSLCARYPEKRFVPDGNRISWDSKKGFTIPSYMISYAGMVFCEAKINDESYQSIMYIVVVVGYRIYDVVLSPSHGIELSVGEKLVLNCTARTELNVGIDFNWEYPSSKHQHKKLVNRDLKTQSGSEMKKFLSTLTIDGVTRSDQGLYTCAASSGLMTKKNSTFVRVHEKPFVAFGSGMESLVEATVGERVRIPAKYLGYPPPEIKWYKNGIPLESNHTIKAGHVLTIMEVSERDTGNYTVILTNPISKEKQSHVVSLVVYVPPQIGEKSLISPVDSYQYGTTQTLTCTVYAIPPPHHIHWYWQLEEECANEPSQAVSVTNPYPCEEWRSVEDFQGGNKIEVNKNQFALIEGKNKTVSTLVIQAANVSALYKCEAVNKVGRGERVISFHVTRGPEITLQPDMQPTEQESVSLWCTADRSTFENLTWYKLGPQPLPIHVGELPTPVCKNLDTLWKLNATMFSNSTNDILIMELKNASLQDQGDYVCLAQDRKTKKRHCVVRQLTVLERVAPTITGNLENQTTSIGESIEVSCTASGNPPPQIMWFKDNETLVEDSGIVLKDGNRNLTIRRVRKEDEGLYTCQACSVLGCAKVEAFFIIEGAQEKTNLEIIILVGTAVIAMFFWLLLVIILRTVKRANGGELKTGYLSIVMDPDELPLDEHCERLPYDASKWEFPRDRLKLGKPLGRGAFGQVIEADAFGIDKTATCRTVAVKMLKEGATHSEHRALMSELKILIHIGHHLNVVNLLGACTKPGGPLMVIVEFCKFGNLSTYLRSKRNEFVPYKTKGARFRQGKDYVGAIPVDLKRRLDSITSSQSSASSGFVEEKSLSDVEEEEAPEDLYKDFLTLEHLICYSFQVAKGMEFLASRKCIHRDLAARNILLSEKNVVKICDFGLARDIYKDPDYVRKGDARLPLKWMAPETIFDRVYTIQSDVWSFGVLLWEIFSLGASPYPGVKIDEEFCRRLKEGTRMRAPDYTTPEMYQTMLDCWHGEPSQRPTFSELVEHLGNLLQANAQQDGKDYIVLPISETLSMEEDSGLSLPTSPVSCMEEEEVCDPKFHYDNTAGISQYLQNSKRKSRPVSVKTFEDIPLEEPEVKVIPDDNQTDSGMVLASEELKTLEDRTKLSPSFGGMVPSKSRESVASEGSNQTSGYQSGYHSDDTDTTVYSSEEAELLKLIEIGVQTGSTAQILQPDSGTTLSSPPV

As for `Cc1cc2c(F)c(Oc3nc(Nc4cc(C5CC5)[nH]n4)cc(N4CCN(C)CC4)n3)cc(F)c2[nH]1` [Compound 81], the inhibition at 1 µM worked out at 101% against Flt3(h); 99% on cSRC(h); 99% on Aurora-A(h); 99% against Ret(h); 96% against KDR(h); 110% at Abl(h).

In the case of `Cc1cc2c(F)c(Oc3nc(Nc4cc(C5CC5)[nH]n4)cc(N4CCOCC4)n3)cc(F)c2[nH]1` [Compound 84], the inhibition at 1 µM at Flt3(h) was 100%; against cSRC(h), 100%; on Aurora-A(h) it was 98%; at Ret(h), 100%; on KDR(h), 93%; against Abl(h), 103%.

On to `C/C=C/c1cc(Nc2cc(N3CCN(C)CC3)nc(Oc3cc(F)c4[nH]c(C)cc4c3F)n2)n[nH]1` [Compound 87], for which the inhibition at 1 µM on Flt3(h) was found to be 100%; against cSRC(h), 95%; on Aurora-A(h), 99%; at Ret(h), 83%; on KDR(h), 95%; against Abl(h), 112%.

Consider `C/C=C/c1cc(Nc2cc(N3CCOCC3)nc(Oc3cc(F)c4[nH]c(C)cc4c3F)n2)n[nH]1` [Compound 89], for which the inhibition at 1 µM against Flt3(h) turned out to be 100%; on cSRC(h), 100%; at Aurora-A(h), 100%; against Ret(h), 99%; against KDR(h) it was 96%; against Abl(h) it was 112%.

Consider `C/C=C/c1cc(Nc2cc(N3CCC(O)C3)nc(Oc3cc(F)c4[nH]c(C)cc4c3F)n2)n[nH]1` (stereo not drawn) [Compound 92], for which the inhibition at 1 µM against Flt3(h) came to 100%; on cSRC(h), 100%; on Aurora-A(h), 100%; against Ret(h), 102%; on KDR(h), 96%; on Abl(h) it was 111%.

Consider `C/C=C/c1cc(Nc2cc(N3CCC(OC)C3)nc(Oc3cc(F)c4[nH]c(C)cc4c3F)n2)n[nH]1` (stereo not drawn) [Compound 93], for which the inhibition at 1 µM at Flt3(h) amounted to 100%; on cSRC(h) it was 101%; at Aurora-A(h) it was 102%; against Ret(h), 102%; on KDR(h), 95%; against Abl(h), 111%.

In the case of `C/C=C/c1cc(Nc2cc(N3CCC(N(CC)CC)C3)nc(Oc3cc(F)c4[nH]c(C)cc4c3F)n2)n[nH]1` (stereo not drawn) [Compound 94], the inhibition at 1 µM against Flt3(h) came out at 99%; at cSRC(h), 100%; on Aurora-A(h), 100%; against Ret(h), 102%; on KDR(h), 96%; on Abl(h), 111%.

With `C/C=C/c1cc(Nc2cc(N3CCC(O)CC3)nc(Oc3cc(F)c4[nH]c(C)cc4c3F)n2)n[nH]1` [Compound 95], the inhibition at 1 µM at Flt3(h) turned out to be 100%; against cSRC(h), 100%; at Aurora-A(h), 100%; against Ret(h), 101%; at KDR(h), 96%; against Abl(h), 110%.

On to `C/C=C/c1cc(Nc2cc(N3CCC(OC)CC3)nc(Oc3cc(F)c4[nH]c(C)cc4c3F)n2)n[nH]1` [Compound 96], for which the inhibition at 1 µM against Flt3(h) was determined as 99%; at cSRC(h), 101%; on Aurora-A(h), 98%; against Ret(h), 102%; on KDR(h), 95%; against Abl(h), 110%.

For the compound `C/C=C/c1cc(Nc2cc(N3CCN(S(C)(=O)=O)CC3)nc(Oc3cc(F)c4[nH]c(C)cc4c3F)n2)n[nH]1` [Compound 98], the inhibition at 1 µM at Flt3(h) came out at 100%; on cSRC(h) it was 100%; at Aurora-A(h), 98%; against Ret(h), 102%; on KDR(h), 96%; against Abl(h), 111%.

For `C/C=C/c1cc(Nc2cc(N3CCN(CC)CC3)nc(Oc3cc(F)c4[nH]c(C)cc4c3F)n2)n[nH]1` [Compound 99], the inhibition at 1 µM against Flt3(h) amounted to 102%; at cSRC(h), 103%; on Aurora-A(h), 101%; against Ret(h), 102%; against KDR(h) it was 91%; against Abl(h), 113%.

As for `CCN1CCN(c2cc(Nc3cc(C)[nH]n3)nc(Oc3cc(F)c4[nH]c(C)cc4c3F)n2)CC1` [Compound 103], the inhibition at 1 µM was determined as 99% against Flt3(h); 96% against cSRC(h); 97% at Aurora-A(h); 101% against Ret(h); 91% against KDR(h); 113% against Abl(h).

As to `Cc1cc(Nc2cc(N3CCN(CCO)CC3)nc(Oc3cc(F)c4[nH]c(C)cc4c3F)n2)n[nH]1` [Compound 105], the inhibition at 1 µM was found to be 99% against Flt3(h); 96% at cSRC(h); 98% on Aurora-A(h); 101% against Ret(h); 91% on KDR(h); 112% on Abl(h).

As for `Cc1cc(Nc2cc(N3CCNCC3)nc(Oc3cc(F)c4[nH]c(C)cc4c3F)n2)n[nH]1` [Compound 106], the inhibition at 1 µM amounted to 99% on Flt3(h); 98% against cSRC(h); 97% on Aurora-A(h); 98% against Ret(h); 95% against KDR(h); 109% against Abl(h).

Regarding `Cc1cc(Nc2cc(N3CCOCC3)nc(Oc3cc(F)c4[nH]c(C)cc4c3F)n2)n[nH]1` [Compound 107], the inhibition at 1 µM was determined as 98% against Flt3(h); 96% against cSRC(h); 95% on Aurora-A(h); 99% on Ret(h); 90% against KDR(h); 111% against Abl(h).

`C/C=C/c1cc(Nc2cc(N3CCN(C)CC3)nc(Oc3ccc4[nH]c(C)cc4c3Cl)n2)n[nH]1` [Compound 112]: the inhibition at 1 µM against Flt3(h) turned out to be 102%; at cSRC(h), 104%; at Aurora-A(h), 100%; on Ret(h) it was 102%; against KDR(h), 91%; against Abl(h), 113%.

`C/C=C/c1cc(Nc2cc(N3CCN(C)CC3)nc(Oc3ccc4c(cc(C)n4C)c3F)n2)n[nH]1` [Compound 120]: the inhibition at 1 µM at Flt3(h) is 101%; on cSRC(h), 104%; on Aurora-A(h), 101%; at Ret(h), 101%; at KDR(h), 91%; at Abl(h), 115%.
